Literature values, collected in patent US20210317092A1 (BAYER PHARMA AKTIENGESELLSCHAFT, priority 2016, published 2021).

What was measured:
[1] = cited from earlier work
[2] = cited from earlier work; remark: listed apart in the source
[3] = cited from earlier work; remark: listed apart in the source
[4] = due to metabolic tability; cited from earlier work

Compound | aqueous solubility [1] | human metabolic stability [2] | pharmacokinetic profile in rat [3] | pharmacokinetic profile [4]
C[C@@H]1CC[C@H](C)N1C(=O)c1ccc([C@@H](C)NC(=O)C2(NC(=O)c3cc(F)cc(C(F)(F)F)c3)CC2)c(F)c1 | reasonable | poor | reasonable | 
C[C@@H](NC(=O)C1(NC(=O)C(F)(F)F)CC1)c1ccc(-c2cccc(Cl)c2C(=O)O)cc1F [MK-0686] |  |  |  | suboptimal
